Measured values: PubChem BioAssay AID1963837 (Molecular Pharmacology Branch, DTP, NCI, 2024)

System: 843126-344-R-J1-PDC complex spheroid viability
Test: Anticancer human tumor 843126-344-R-J1-PDC patient-derived melanoma cell line growth inhibition [POLQ]
Settings: for IC50: curve of first compound; for viability, T/C: stronger effect = lower value
How it was run: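 PDC + HUVEC + MSC complex spheroids; POLQ inhibitors ± partner drugs; top conc. at/near clinical Cmax, else 10 microM (SN-38 1 microM), half-log dilutions; 37 degrees C, 5% CO2.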

[1] = second compound 0.0316 µM, first compound 0.0316 µM
[2] = second compound 0.0316 µM, first compound 0.1 µM
[3] = second compound 0.1 µM, first compound 0.0316 µM
[4] = second compound 0.1 µM, first compound 0.1 µM
[5] = second compound 0.316 µM, first compound 0.0316 µM
[6] = second compound 0.316 µM, first compound 0.1 µM
[7] = second compound 1 µM, first compound 0.0316 µM
[8] = second compound 1 µM, first compound 0.1 µM
[9] = second compound 3.16 µM, first compound 0.0316 µM
[10] = second compound 3.16 µM, first compound 0.1 µM
[11] = second compound 10 µM, first compound 0.0316 µM
[12] = second compound 10 µM, first compound 0.1 µM
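Throughout, for viability, T/C: spheroids exposed to drugs for seven days before readout.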

Q: Which results are given for `Cn1ncnc1[C@H]1c2n[nH]c(=O)c3cc(F)cc(c23)N[C@@H]1c1ccc(F)cc1` + Cc1cccc(N(C)C(=O)C2C(O)CCN2c2nc(C)cc(C(F)(F)F)c2C#N)c1?
A: IC50 (second compound 0.0316 µM): > 0.1 µM; IC50 (second compound 0.1 µM): > 0.1 µM; IC50 (second compound 0.316 µM): > 0.1 µM; IC50 (second compound 1 µM): > 0.1 µM; IC50 (second compound 3.16 µM): > 0.1 µM; IC50 (second compound 10 µM): > 0.1 µM; viability, T/C (second compound 0.0316 µM, first compound 0.000316 µM): 83.1%; viability, T/C (second compound 0.0316 µM, first compound 0.001 µM): 80%; viability, T/C (second compound 0.0316 µM, first compound 0.00316 µM): 92.3%; viability, T/C (second compound 0.0316 µM, first compound 0.01 µM): 74.1%; viability, T/C [1]: 91.9%; viability, T/C [2]: 71.8%; viability, T/C (second compound 0.1 µM, first compound 0.000316 µM): 94.8%; viability, T/C (second compound 0.1 µM, first compound 0.001 µM): 91.6%; viability, T/C (second compound 0.1 µM, first compound 0.00316 µM): 96.6%; viability, T/C (second compound 0.1 µM, first compound 0.01 µM): 73%; viability, T/C [3]: 88.7%; viability, T/C [4]: 66%; viability, T/C (second compound 0.316 µM, first compound 0.000316 µM): 82.8%; viability, T/C (second compound 0.316 µM, first compound 0.001 µM): 82.5%; viability, T/C (second compound 0.316 µM, first compound 0.00316 µM): 89.5%; viability, T/C (second compound 0.316 µM, first compound 0.01 µM): 86.3%; viability, T/C [5]: 88.7%; viability, T/C [6]: 86.5%; viability, T/C (second compound 1 µM, first compound 0.000316 µM): 73.2%; viability, T/C (second compound 1 µM, first compound 0.001 µM): 67.6%; viability, T/C (second compound 1 µM, first compound 0.00316 µM): 92.6%; viability, T/C (second compound 1 µM, first compound 0.01 µM): 86.8%; viability, T/C [7]: 76.4%; viability, T/C [8]: 78.6%; viability, T/C (second compound 3.16 µM, first compound 0.000316 µM): 67.4%; viability, T/C (second compound 3.16 µM, first compound 0.001 µM): 78.7%; viability, T/C (second compound 3.16 µM, first compound 0.00316 µM): 88.9%; viability, T/C (second compound 3.16 µM, first compound 0.01 µM): 77.6%; viability, T/C [9]: 87.5%; viability, T/C [10]: 67.3%; viability, T/C (second compound 10 µM, first compound 0.000316 µM): 76.3%; viability, T/C (second compound 10 µM, first compound 0.001 µM): 87.8%; viability, T/C (second compound 10 µM, first compound 0.00316 µM): 84.2%; viability, T/C (second compound 10 µM, first compound 0.01 µM): 77.4%; viability, T/C [11]: 86.2%; viability, T/C [12]: 79.9%

Q: With `COc1ccc([C@@H](O)c2cc(-c3ncnc4cc(N5CCOCC5)ccc34)c(F)cc2Cl)nn1` + COC1C(OC(N)=O)C(O)C(Oc2ccc3c(O)c(NC(=O)c4ccc(O)c(CC=C(C)C)c4)c(=O)oc3c2C)OC1(C)C as the molecule, how does the IC50 (second compound 0.0316 µM) read?
A: The IC50 was greater than 10 µM.

Q: And the IC50 (second compound 0.1 µM)?
A: Its IC50 is greater than 10 µM.

Q: And the IC50 (second compound 0.316 µM)?
A: The IC50 was 7.08 µM.

Q: And the IC50 (second compound 1 µM)?
A: Its IC50 is greater than 10 µM.

Q: And the IC50 (second compound 3.16 µM)?
A: The IC50 was greater than 10 µM.

Q: What about the IC50 (second compound 10 µM) of the same molecule?
A: Its IC50 is 9.31 µM.

Q: And the viability, T/C [1]?
A: The viability, T/C was 116%.

Q: What about the viability, T/C [2] of the same molecule?
A: The viability, T/C was 82.3%.

Q: And the viability, T/C (second compound 0.0316 µM, first compound 0.316 µM)?
A: The viability, T/C was 105%.

Q: And the viability, T/C (second compound 0.0316 µM, first compound 1 µM)?
A: The viability, T/C was 84.7%.

Q: What about the viability, T/C (second compound 0.0316 µM, first compound 3.16 µM) of the same molecule?
A: Its viability, T/C is 85.7%.

Q: What about the viability, T/C (second compound 0.0316 µM, first compound 10 µM) of the same molecule?
A: Its viability, T/C is 53.4%.

Q: What about the viability, T/C [3] of the same molecule?
A: Its viability, T/C is 85.8%.

Q: And the viability, T/C [4]?
A: The viability, T/C was 85.7%.

Q: And the viability, T/C (second compound 0.1 µM, first compound 0.316 µM)?
A: The viability, T/C was 116%.

Q: What about the viability, T/C (second compound 0.1 µM, first compound 1 µM) of the same molecule?
A: The viability, T/C was 79.5%.

Q: And the viability, T/C (second compound 0.1 µM, first compound 3.16 µM)?
A: The viability, T/C was 81.6%.

Q: And the viability, T/C (second compound 0.1 µM, first compound 10 µM)?
A: Its viability, T/C is 54.1%.

Q: What about the viability, T/C [5] of the same molecule?
A: The viability, T/C was 93.4%.

Q: And the viability, T/C [6]?
A: The viability, T/C was 98.2%.

Q: What about the viability, T/C (second compound 0.316 µM, first compound 0.316 µM) of the same molecule?
A: Its viability, T/C is 92.8%.

Q: What about the viability, T/C (second compound 0.316 µM, first compound 1 µM) of the same molecule?
A: Its viability, T/C is 89%.

Q: What about the viability, T/C (second compound 0.316 µM, first compound 3.16 µM) of the same molecule?
A: Its viability, T/C is 63%.

Q: And the viability, T/C (second compound 0.316 µM, first compound 10 µM)?
A: The viability, T/C was 44.4%.

Q: And the viability, T/C [7]?
A: The viability, T/C was 95.8%.

Q: And the viability, T/C [8]?
A: The viability, T/C was 80.1%.

Q: What about the viability, T/C (second compound 1 µM, first compound 0.316 µM) of the same molecule?
A: Its viability, T/C is 92.8%.

Q: What about the viability, T/C (second compound 1 µM, first compound 1 µM) of the same molecule?
A: Its viability, T/C is 91%.

Q: And the viability, T/C (second compound 1 µM, first compound 3.16 µM)?
A: The viability, T/C was 85.6%.

Q: And the viability, T/C (second compound 1 µM, first compound 10 µM)?
A: The viability, T/C was 54.9%.

Q: And the viability, T/C [9]?
A: Its viability, T/C is 87.8%.

Q: What about the viability, T/C [10] of the same molecule?
A: The viability, T/C was 102%.

Q: And the viability, T/C (second compound 3.16 µM, first compound 0.316 µM)?
A: The viability, T/C was 90.3%.

Q: What about the viability, T/C (second compound 3.16 µM, first compound 1 µM) of the same molecule?
A: The viability, T/C was 73.8%.

Q: What about the viability, T/C (second compound 3.16 µM, first compound 3.16 µM) of the same molecule?
A: The viability, T/C was 85%.

Q: What about the viability, T/C (second compound 3.16 µM, first compound 10 µM) of the same molecule?
A: Its viability, T/C is 49.9%.

Q: What about the viability, T/C [11] of the same molecule?
A: Its viability, T/C is 87%.

Q: And the viability, T/C [12]?
A: The viability, T/C was 76%.

Q: And the viability, T/C (second compound 10 µM, first compound 0.316 µM)?
A: The viability, T/C was 109%.

Q: What about the viability, T/C (second compound 10 µM, first compound 1 µM) of the same molecule?
A: The viability, T/C was 76%.

Q: What about the viability, T/C (second compound 10 µM, first compound 3.16 µM) of the same molecule?
A: The viability, T/C was 69.6%.

Q: What about the viability, T/C (second compound 10 µM, first compound 10 µM) of the same molecule?
A: The viability, T/C was 48.5%.
